Measurements taken from patent publication US9169254B2, “Spiroimidazolone derivative” (Chugai Seiyaku Kabushiki Kaisha, priority 2009, dated 2015).

Biological target: T1, human PTH1 receptor (Homo sapiens, UniProt Q03431)
T1 sequence (Q03431 27-593): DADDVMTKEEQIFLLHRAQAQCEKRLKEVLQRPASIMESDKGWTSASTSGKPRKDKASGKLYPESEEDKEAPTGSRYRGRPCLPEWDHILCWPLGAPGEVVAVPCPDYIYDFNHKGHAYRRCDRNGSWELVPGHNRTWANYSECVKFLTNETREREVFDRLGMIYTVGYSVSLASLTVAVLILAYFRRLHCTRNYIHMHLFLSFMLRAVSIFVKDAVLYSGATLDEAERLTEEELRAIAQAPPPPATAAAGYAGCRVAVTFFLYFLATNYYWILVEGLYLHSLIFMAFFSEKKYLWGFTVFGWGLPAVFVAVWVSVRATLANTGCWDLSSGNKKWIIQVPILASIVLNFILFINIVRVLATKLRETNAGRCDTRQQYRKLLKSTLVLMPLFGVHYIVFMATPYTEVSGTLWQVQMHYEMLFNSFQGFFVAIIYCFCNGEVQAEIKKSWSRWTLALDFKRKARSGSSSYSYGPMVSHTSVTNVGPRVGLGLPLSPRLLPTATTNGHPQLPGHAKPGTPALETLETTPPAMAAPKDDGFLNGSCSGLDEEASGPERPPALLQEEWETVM
Experiment: In vitro cAMP signal activity in HKRK-B7 cells (LLC-PK1 cells overexpressing the human PTH1 receptor)
Type: cell-based
Conditions: HKRK-B7 cells; compound at 1×10^−3 M; cAMP produced as percentage of that produced by hPTH(1-34) at 100 nM

**Q.** How did the “cAMP production activity (%)” value turn out when `Cc1ccccc1C1=NC2(CCN(S(=O)(=O)c3cccc(Cl)c3)CC2)C(=O)N1` [Compound 11, 8-(3-chloro-benzenesulfonyl)-2-o-tolyl-1,3,8-triaza-spiro[4.5]dec-1-en-4-one] was run?
**A.** 16%

**Q.** Which “cAMP production activity (%)” value does the source give for `Cc1cc(N2C(=O)CNC2=O)ccc1CCS(=O)(=O)N1CCC2(CC1)N=C(C1CCC(CCCC(F)(F)F)CC1)NC2=O` (stereo not shown) [Compound 944, 3-[3-methyl-4-(2-{4-oxo-2-[4-(4,4,4-trifluoro-butyl)-cyclohexyl]-1,3,8-triaza-spiro[4.5]dec-1-ene-8-sulfonyl}-ethyl)-phenyl]-imidazolidine-2,4-dione] here?
**A.** 71%

**Q.** Which “cAMP production activity (%)” value does the source give for `Cc1cc(C(=O)N2CCC(O)(CF)CC2)cc(C)c1/C=C/S(=O)(=O)N1CCC2(CC1)N=C(c1ccc(F)c(OCCCC(F)(F)C(F)(F)F)c1)NC2=O` [Compound 1263, 8-{(E)-2-[4-(4-fluoromethyl-4-hydroxy-piperidine-1-carbonyl)-2,6-dimethyl-phenyl]-ethenesulfonyl}-2-[4-fluoro-3-(4,4,5,5,5-pentafluoro-pentyloxy)-phenyl]-1,3,8-triaza-spiro[4.5]dec-1-en-4-one] here?
**A.** 73%

**Q.** For `Cc1cc(S(=O)(=O)NCCN2CCOCC2)ccc1CCS(=O)(=O)N1CCC2(CC1)N=C(c1cccc(C(F)(F)F)c1)NC2=O` [Compound 292, 3-methyl-N-(2-morpholin-4-yl-ethyl)-4-{2-[4-oxo-2-(3-trifluoromethyl-phenyl)-1,3,8-triaza-spiro[4.5]dec-1-ene-8-sulfonyl]-ethyl}-benzenesulfonamide], which “cAMP production activity (%)” value is on record?
**A.** 58%

**Q.** `Cc1cc(CCS(=O)(=O)N2CCC3(CC2)N=C(c2cccc(OC(F)(F)F)c2)NC3=O)cc(C)c1OCCC(O)CO` (stereo not shown) [Compound 855, 8-{2-[4-(3,4-dihydroxy-butoxy)-3,5-dimethyl-phenyl]-ethanesulfonyl}-2-(3-trifluoromethoxy-phenyl)-1,3,8-triaza-spiro[4.5]dec-1-en-4-one] was tested. Which “cAMP production activity (%)” value did it give?
**A.** 82%

**Q.** For `O=C1NC(c2ccc(Cl)cc2Cl)=NC12CCN(S(=O)(=O)c1ccc(Cl)cc1)CC2` [Compound 44, 8-(4-Chloro-benzenesulfonyl)-2-(2,4-dichloro-phenyl)-1,3,8-triaza-spiro[4.5]dec-1-en-4-one], which “cAMP production activity (%)” value is on record?
**A.** 25%

**Q.** `Cc1cc(C(=O)N2CCCC2)ccc1/C=C/S(=O)(=O)N1CCC2(CC1)N=C(c1ccc(F)c(C(F)(F)F)c1)NC2=O` [Compound 619, 2-(4-Fluoro-3-trifluoromethyl-phenyl)-8-{(E)-2-[2-methyl-4-(pyrrolidine-1-carbonyl)-phenyl]-ethenesulfonyl}-1,3,8-triaza-spiro[4.5]dec-1-en-4-one] was tested. Which “cAMP production activity (%)” value did it give?
**A.** 61%

**Q.** With `Cc1cc2cc(C)c1CCS(=O)(=O)N1CCC3(CC1)N=C(CCCCCCCCCCCCCC(=O)N2C)NC3=O` [Compound 1445] as the compound, how does the “cAMP production activity (%)” value read?
**A.** 62%

**Q.** For `Cc1cc2cc(C)c1CCS(=O)(=O)N1CCC3(CC1)N=C(CCCC/C=C/CCCCC(=O)N2C)NC3=O` [Compound 1447], which “cAMP production activity (%)” value is on record?
**A.** 15%

**Q.** For `Cc1cc2ccc1CCS(=O)(=O)N1CCC3(CC1)N=C(NC3=O)c1cc(cc(C(F)(F)F)c1)OCC/C=C/COCCN(C)C2=O` [Compound 1420], which “cAMP production activity (%)” value is on record?
**A.** 20%

**Q.** Which “cAMP production activity (%)” value does the source give for `CC(=O)Nc1ccc(CCS(=O)(=O)N2CCC3(CC2)N=C(C2CCC(F)(CCCF)CC2)NC3=O)c(C)c1` (stereo not shown) [Compound 1073, N-[4-(2-{2-[4-fluoro-4-(3-fluoro-propyl)-cyclohexyl]-4-oxo-1,3,8-triaza-spiro[4.5]dec-1-ene-8-sulfonyl}-ethyl)-3-methyl-phenyl]-acetamide] here?
**A.** 66%

**Q.** For `CCC[C@@H]1CCC[C@H](C2=NC3(CCN(S(=O)(=O)CCc4ccc(NC(C)=O)cc4C)CC3)C(=O)N2)C1` [Compound 923, N-(3-methyl-4-{2-[4-oxo-2-((1S,3R)-3-propyl-cyclohexyl)-1,3,8-triaza-spiro[4.5]dec-1-ene-8-sulfonyl]-ethyl}-phenyl)-acetamide], which “cAMP production activity (%)” value is on record?
**A.** 84%

**Q.** Which “cAMP production activity (%)” value does the source give for `Cc1cc(NCCN(C)C)ccc1/C=C/S(=O)(=O)N1CCC2(CC1)N=C(C1CCCCC1)NC2=O` [Compound 497, 2-cyclohexyl-8-{(E)-2-[4-(2-dimethylamino-ethylamino)-2-methyl-phenyl]-ethenesulfonyl}-1,3,8-triaza-spiro[4.5]dec-1-en-4-one] here?
**A.** 38%

**Q.** For `Cc1cc(C(=O)N(C)C)ccc1CCS(=O)(=O)N1CCC2(CC1)N=C(c1ccc(Cl)cc1F)NC2=O` [Compound 129, 4-{2-[2-(4-chloro-2-fluoro-phenyl)-4-oxo-1,3,8-triaza-spiro[4.5]dec-1-ene-8-sulfonyl]-ethyl}-3,N,N-trimethyl-benzamide], which “cAMP production activity (%)” value is on record?
**A.** 3.7%

**Q.** For `CC(=O)N(c1ccc(CCS(=O)(=O)N2CCC3(CC2)N=C(c2cccc(OC(F)(F)F)c2)NC3=O)c(C)c1)C1CCCC1` [Compound 678, N-Cyclopentyl-N-(3-methyl-4-{2-[4-oxo-2-(3-trifluoromethoxy-phenyl)-1,3,8-triaza-spiro[4.5]dec-1-ene-8-sulfonyl]-ethyl}-phenyl)-acetamide], which “cAMP production activity (%)” value is on record?
**A.** 86%

**Q.** How did the “cAMP production activity (%)” value turn out when `Cc1cc(OC[C@H](O)CO)ccc1CCS(=O)(=O)N1CCC2(CC1)N=C(c1cccc(OC(F)(F)F)c1)NC2=O` [Compound 325, 8-{2-[4-((R)-2,3-Dihydroxy-propoxy)-2-methyl-phenyl]-ethanesulfonyl}-2-(3-trifluoromethoxy-phenyl)-1,3,8-triaza-spiro[4.5]dec-1-en-4-one] was run?
**A.** 61%

**Q.** How did the “cAMP production activity (%)” value turn out when `Cc1cc(NS(C)(=O)=O)cc(C)c1/C=C/S(=O)(=O)N1CCC2(CC1)N=C(c1cccc(OC(F)(F)F)c1)NC2=O` [Compound 229, N-(3,5-dimethyl-4-{(E)-2-[4-oxo-2-(3-trifluoromethoxy-phenyl)-1,3,8-triaza-spiro[4.5]dec-1-ene-8-sulfonyl]-vinyl}-phenyl)-methanesulfonamide] was run?
**A.** 68%

**Q.** For `CC1(C2=NC3(CCN(S(=O)(=O)c4cccc(Cl)c4)CC3)C(=O)N2)CCCCC1` [Compound 14, 8-(3-chloro-benzenesulfonyl)-2-(1-methyl-cyclohexyl)-1,3,8-triaza-spiro[4.5]dec-1-en-4-one], which “cAMP production activity (%)” value is on record?
**A.** 38%

**Q.** `Cc1cc(C(=O)N2CCC(C)(O)CC2)cc(C)c1/C=C/S(=O)(=O)N1CCC2(CC1)N=C(c1ccc(F)c(OCCCF)c1)NC2=O` [Compound 1215, 2-[4-fluoro-3-(3-fluoro-propoxy)-phenyl]-8-{(E)-2-[4-(4-hydroxy-4-methyl-piperidine-1-carbonyl)-2,6-dimethyl-phenyl}-ethenesulfonyl]-1,3,8-triaza-spiro[4.5]dec-1-en-4-one] was tested. Which “cAMP production activity (%)” value did it give?
**A.** 74%

**Q.** With `Cc1cc(NC[C@H](O)CO)ccc1CCS(=O)(=O)N1CCC2(CC1)N=C(c1cccc(C(F)(F)F)c1)NC2=O` [Compound 155, 8-{2-[4-((S)-2,3-dihydroxy-propylamino)-2-methyl-phenyl]-ethanesulfonyl}-2-(3-trifluoromethyl-phenyl)-1,3,8-triaza-spiro[4.5]dec-1-en-4-one] as the compound, how does the “cAMP production activity (%)” value read?
**A.** 45%

**Q.** For `CC(=O)Nc1ccc(CCS(=O)(=O)N2CCC3(CC2)N=C(C2CCC(CC(C)F)CC2)NC3=O)c(C)c1` (stereo not shown) [Compound 1077, N-[4-(2-{2-[4-(2-fluoro-propyl)-cyclohexyl]-4-oxo-1,3,8-triaza-spiro[4.5]dec-1-ene-8-sulfonyl}-ethyl)-3-methyl-phenyl]-acetamide], which “cAMP production activity (%)” value is on record?
**A.** 74%

**Q.** How did the “cAMP production activity (%)” value turn out when `Cc1cc(C(=O)N2CCC[C@@H]2C(N)=O)ccc1CCS(=O)(=O)N1CCC2(CC1)N=C(c1cccc(C(F)(F)F)c1)NC2=O` [Compound 369, (R)-1-(3-methyl-4-{2-[4-oxo-2-(3-trifluoromethyl-phenyl)-1,3,8-triaza-spiro[4.5]dec-1-ene-8-sulfonyl]-ethyl}-benzoyl)-pyrrolidine-2-carboxylic acid amide] was run?
**A.** 43%

**Q.** For `Cc1cc(S(=O)(=O)NC2CCN(Cc3ccccc3)CC2)ccc1/C=C/S(=O)(=O)N1CCC2(CC1)N=C(c1cccc(OC(F)(F)F)c1)NC2=O` [Compound 596, N-(1-Benzyl-piperidin-4-yl)-3-methyl-4-{(E)-2-[4-oxo-2-(3-trifluoromethoxy-phenyl)-1,3,8-triaza-spiro[4.5]dec-1-ene-8-sulfonyl]-vinyl}-benzenesulfonamide], which “cAMP production activity (%)” value is on record?
**A.** 40%

**Q.** For `Cc1cc(C(=O)N(C)C)ccc1CCS(=O)(=O)N1CCC2(CC1)N=C(c1ccc(Cl)cc1)NC2=O` [Compound 87, 4-{2-[2-(4-chloro-phenyl)-4-oxo-1,3,8-triaza-spiro[4.5]dec-1-ene-8-sulfonyl]-ethyl}-3,N,N-trimethyl-benzamide], which “cAMP production activity (%)” value is on record?
**A.** 6.7%

**Q.** With `[2H]C([2H])([2H])C([2H])([2H])C([2H])([2H])C([2H])([2H])Oc1cc(C2=NC3(CCN(S(=O)(=O)/C=C/c4c(C)cc(C(=O)N5CCC(C)(O)CC5)cc4C)CC3)C(=O)N2)ccc1F` [Compound 1211, 2-(3-[1,1,2,2,3,3,4,4,4-^2H9]butoxy-4-fluoro-phenyl)-8-{(E)-2-[4-(4-hydroxy-4-methyl-piperidine-1-carbonyl)-2,6-dimethyl-phenyl]-ethenesulfonyl}-1,3,8-triaza-spiro[4.5]dec-1-en-4-one] as the compound, how does the “cAMP production activity (%)” value read?
**A.** 99%
